{
  "source": "patent US20140066362A1",
  "about": "“METHOD FOR TREATING INFECTIONS BY TARGETING MICROBIAL H2S-PRODUCING ENZYMES” (NEW YORK UNIVERSITY, priority 2011, published 2014)",
  "key": {"[1]": {"tested_on": "E. coli cells", "type": "cell-based", "conditions": "pretreatment for 3 min, 2,2′-dipyridyl 0.05 mM or thiourea 15 mM, then Gm"}, "[2]": {"tested_on": "Wt E. coli cells", "type": "cell-based", "conditions": "then H2O2 2 mM for 10 min"}, "[3]": {"tested_on": "CBS/CSE", "type": "cell-based, B. anthracis, S. aureus, P. aeruginosa", "conditions": "chemical inhibition of CSE (PAG) or CBS (AOAA), 18 hours culture"}, "[4]": {"tested_on": "pBR322 plasmid DNA", "assay": "Electrophoresis assay of DNA damage in vitro (Fenton reaction)", "conditions": "NaHS:Fe3+ 6:1, with Cys and H2O2, pH 8"}, "[5]": {"tested_on": "recA′::gfp E. coli", "type": "cell-based", "conditions": "NaHS 200 μM, aspartate-treated cells"}, "[6]": {"tested_on": "3MST-deficient E. coli cells", "type": "cell-based", "conditions": "diamide 25 μM, gentamicin 50 μg/ml for 5 min"}},
  "data": [
    {"smiles": "c1ccc(-c2ccccn2)nc1", "note": "[2,2′-dipyridyl]", "values": [
      {"measurement": "Effect on toxicity of Gm", "setting": "[1]", "result": "substantially decreased the toxicity of Gm"},
      {"measurement": "Protection against peroxide (in words)", "setting": "[2]; dipyridyl 0.5 mM pretreatment for 1 min", "result": "protected them rapidly against peroxide"}
    ]},
    {"smiles": "NOCC(=O)O", "note": "[AOAA, amino-oxyacetate]", "values": [
      {"measurement": "Effect on H2S production (PbS staining)", "setting": "[3]", "result": "greatly decreased or eliminated PbS staining"}
    ]},
    {"smiles": "[Na+].[SH-]", "note": "[NaHS]", "values": [
      {"measurement": "Inhibition of Fenton-mediated DNA damage", "setting": "[4]", "result": "completely inhibited DNA damage"},
      {"measurement": "Increase in resistance to peroxide", "setting": "[2]; NaHS 200 μM pretreatment for 1 min", "result": "> 20", "unit": "times"},
      {"measurement": "Effect on hyper-induction of SOS by gentamicin", "setting": "[5]", "result": "completely suppressed the hyper-induction of SOS by gentamicin"}
    ]},
    {"smiles": "CN(C)C(=O)/N=N/C(=O)N(C)C", "note": "[diamide]", "values": [
      {"measurement": "Protection against Gm", "setting": "[6]", "result": "protected 3MST mutant cells against Gm"}
    ]}
  ]
}
